Test results from publication PMC2263054, “Functional evolution of the vitamin D and pregnane X receptors” (BMC Evolutionary Biology, 2007).
Read-outs that look alike come from different tables or passages of the source.

Legend:
Sea lamprey VDR = molecular target: T1, Sea lamprey VDR (Petromyzon marinus, UniProt Q7ZZY9); type: cell-based
T1 sequence (Q7ZZY9 92-406): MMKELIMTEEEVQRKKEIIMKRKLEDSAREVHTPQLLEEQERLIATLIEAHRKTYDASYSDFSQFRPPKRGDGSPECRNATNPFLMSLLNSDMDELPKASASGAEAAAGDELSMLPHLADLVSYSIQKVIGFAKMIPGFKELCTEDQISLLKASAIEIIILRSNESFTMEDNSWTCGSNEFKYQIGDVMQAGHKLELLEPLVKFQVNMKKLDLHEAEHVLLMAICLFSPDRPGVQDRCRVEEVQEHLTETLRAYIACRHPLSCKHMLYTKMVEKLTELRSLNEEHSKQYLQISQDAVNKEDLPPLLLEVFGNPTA

[1] = test system: MDR1 (tentatively classified as ABCB5 in zebrafish); assay: zebrafish in vivo liver transcription, semi-quantitative RT-PCR: MDR1; conditions: ip, 15 mg/kg, 48 h
Description: (§1) Adult zebrafish were purchased from a commercial fish supplier and acclimatized for at least two-weeks in 20 L tanks with flow-through freshwater at 22°C. A single dose of 15 mg/kg of 5α-cyprinol, 5β-cyprinol 27-sulfate, 5α-scymnol or 5β-scymnol-27 sulfate, dissolved in saline, was injected intraperitoneally. A control group was injected with saline. After 48 hr, the animals were decapitated and livers of three fish (n = 5 each group) were removed, pooled and weighed, totalizing 15 fish per group. Fish were not fed throughout the experimental period. […].
(§2) To study the transcription of CYP3C1, ABCB5, PXR, GAPDH and β-actin genes in zebrafish, initial fragments of these genes were identified (Genbank: AW202769, Genbank: BQ284593, Genbank: AAM22215, Genbank: BC083506, Genbank: AF057040, respectively). The PCR primers for CYP3C1 were designed using MacVector Software and primers for MDR1 were designed using Primer 3 Software (Whitehead Institute for Biomedical Research; [75]). Primer pairs for amplifying CYP3C1 fragment were 5'-[…]-3' (sense) and 5'-[…]-3' (antisense) and for amplifying ABCB5 were 5'-[…]-3' (sense) and 5'-[…]-3' (antisense). The PCR primers for PXR were 5'-[…]-3' (sense) and 5'-[…]-3' (antisense), for amplifying GAPDH were 5'-[…]-3' (sense) and 5' […] 3' (antisense) and for β-actin were 5'-[…]-3' (sense) and 5'-[…]-3' (antisense). RNA was isolated using Trizol (Invitrogen) according to manufacturer's instructions. Purity and concentration of RNA of each sample were verified at 260 nm. The RNA integrity was checked by non-denaturing gel electrophoresis using 1 μg of total RNA in each sample.
(§3) Two micrograms of total RNA were reversed transcribed using Ominiscript RT Kit (Qiagen, Valencia, CA, USA). cDNA concentration was checked at 260 nm, and the amount adjusted to 1 μg to perform semi-quantitative RT-PCR. The expected size of the PXR, Cyp3C1, abcb5, GAPDH and β-actin fragments were 577, 477, 218, 234 and 550 bp, respectively. Biotools DNA polymerase (Biotools B&M Labs, S.A., Madrid, Spain) kit was used for the PCR reaction using a thermocycler Personal Mastercycler (Eppendörf) with the following PCR program: 5 cycles of 94°C for 5 s, 72°C for 35 s; 5 cycles of 94°C for 5 s, 70°C for 10 s, 72°C for 35 s; and 23, 24, 35, 15 and 24 cycles (PXR, Cyp3C1, abcb5, GAPDH and β-actin, respectively) of 94°C for 5 s, 61, 54, 48, 49 and 61°C for 10 s (PXR, Cyp3C1, abcb5, GAPDH and β-actin, respectively), and 72°C for 35 s. The PXR, CYP3C1, ABCB5 and GAPDH transcript levels were quantified using Gel-Quant™ (Multiplexed Biotechologies) and β-actin was used to normalize the data. The Shapiro-Wilk W test was used to evaluate normality. When data were parametric the analysis was performed using Student t test; otherwise Mann Whitney U test was applied. […]

Zebrafish VDR = molecular target: T2, Zebrafish VDR (Danio rerio, UniProt Q9PTN2); assay: luciferase reporter transactivation assay in HepG2-NTCP cells, GAL4/zfVDR LBD chimera with tk-UAS-Luc; type: cell-based
T2 sequence (Q9PTN2 121-453): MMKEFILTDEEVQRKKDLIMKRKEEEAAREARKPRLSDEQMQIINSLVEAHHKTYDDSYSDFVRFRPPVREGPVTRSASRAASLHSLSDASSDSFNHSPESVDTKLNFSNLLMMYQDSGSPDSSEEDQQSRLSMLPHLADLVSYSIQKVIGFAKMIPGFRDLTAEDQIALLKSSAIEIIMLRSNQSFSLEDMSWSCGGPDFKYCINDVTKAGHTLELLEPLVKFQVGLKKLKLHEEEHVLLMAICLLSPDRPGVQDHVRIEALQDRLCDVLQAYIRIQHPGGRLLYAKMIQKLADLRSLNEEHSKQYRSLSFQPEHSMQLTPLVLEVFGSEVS

PXR = assay: zebrafish in vivo liver transcription, semi-quantitative RT-PCR: PXR; conditions: ip, 15 mg/kg, 48 h
Description: as §1, §2, §3

CYP3C1 = assay: zebrafish in vivo liver transcription, semi-quantitative RT-PCR: CYP3C1; conditions: ip, 15 mg/kg, 48 h
Description: as §1, §2, §3

Xenopus laevis VDR = molecular target: T3, Xenopus laevis VDR (Xenopus laevis, UniProt O13124); assay: luciferase reporter transactivation assay in HepG2-NTCP cells, GAL4/xlVDR LBD chimera with tk-UAS-Luc; type: cell-based
T3 sequence (O13124 90-422): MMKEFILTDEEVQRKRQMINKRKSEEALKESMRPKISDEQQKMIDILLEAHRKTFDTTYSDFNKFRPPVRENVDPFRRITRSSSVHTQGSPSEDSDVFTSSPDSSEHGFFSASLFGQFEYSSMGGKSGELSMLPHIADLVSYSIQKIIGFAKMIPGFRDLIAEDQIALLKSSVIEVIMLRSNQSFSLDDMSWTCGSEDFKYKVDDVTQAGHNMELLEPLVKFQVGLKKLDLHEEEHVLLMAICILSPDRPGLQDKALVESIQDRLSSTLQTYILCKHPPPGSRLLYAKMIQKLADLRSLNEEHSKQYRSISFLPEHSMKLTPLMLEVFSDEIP

[2] = test system: glyceraldehyde 3-phosphate dehydrogenase (GAPDH); assay: zebrafish in vivo liver transcription, semi-quantitative RT-PCR: GAPDH; conditions: 15 mg/kg intraperitoneally, single dose, 48 hr
Description: Adult zebrafish were purchased from a commercial fish supplier and acclimatized for at least two-weeks in 20 L tanks with flow-through freshwater at 22°C. A single dose of 15 mg/kg of 5α-cyprinol, 5β-cyprinol 27-sulfate, 5α-scymnol or 5β-scymnol-27 sulfate, dissolved in saline, was injected intraperitoneally. A control group was injected with saline. After 48 hr, the animals were decapitated and livers of three fish (n = 5 each group) were removed, pooled and weighed, totalizing 15 fish per group. Fish were not fed throughout the experimental period.
as §2, with “The PCR primers for CYP3C1 were designed using MacVector Software and primers for MDR1 were designed using Primer 3 Software (Whitehead Institute for Biomedical Research; [75]).” left out, “Purity and concentration of RNA of each sample were verified at 260 nm.” left out
The PXR, CYP3C1, ABCB5 and GAPDH transcript levels were quantified using Gel-Quant™ (Multiplexed Biotechologies) and β-actin was used to normalize the data. The Shapiro-Wilk W test was used to evaluate normality. When data were parametric the analysis was performed using Student t test; otherwise Mann Whitney U test was applied.

zebrafish PXR [3] = conditions: cited from earlier work
β-actin = assay: zebrafish in vivo liver transcription, semi-quantitative RT-PCR: β-actin; conditions: ip, 15 mg/kg, 48 h
Description: as §1, §2, §3

[4] = test system: testosterone 6β-hydroxylation activity (CYP3A-like activity); assay: in vitro; conditions: zebrafish
Description: (§4) The cells are cultured at 26°C in ambient atmosphere.
(§5) 100 μL of sample, calibration standard, or quality material standard were pipetted into separate microcentrifuge tubes and mixed with 100 μL of methanol. Samples were vortexed and centrifuged at 13,000 rpm for 4 min. The supernatant was then injected into the HPLC.
(§6) The flow rate was 1.2 mL/min and total run time was 25 min.

[5] = test system: flurbiprofen 4-hydroxylation activity (CYP2C-like activity)
EROD activity = assay: EROD assay in sea lamprey primary hepatocytes; conditions: 24–48 hr exposure
[6] = test system: testosterone 6β-hydroxylation; assay: testosterone hydroxylation (HPLC) in sea lamprey primary hepatocytes; type: cell-based; conditions: concentration ranges per compound
Description: as §5, §6

zebrafish PXR [7] = test system: zebrafish PXR
[8] = test system: ethoxyresorufin O-deethylase (EROD) activity (CYP1A-like activity); assay: in vitro
Description: as §4

[9] = screening for activators, at least three concentrations of each drug

Row | SMILES | Effect on sea lamprey VDR (Sea lamprey VDR; [9]) | liver transcription of MDR1 (ABCB5) [1] | Effect on zebrafish VDR (Zebrafish VDR; [9]) | liver transcription of PXR (PXR) | liver transcription of CYP3C1 (CYP3C1) | Effect on Xenopus laevis VDR (Xenopus laevis VDR; [9]) | liver transcription of GAPDH [2] | activity at recombinant zebrafish PXR (zebrafish PXR [3]) | liver transcription of β-actin (β-actin) [arbitrary units] | Effect on sea lamprey VDR (Sea lamprey VDR) | EC50 [4] [µM] | maximal flurbiprofen 4-hydroxylation activities [5] | effect on EROD activity (EROD activity) | Effect on zebrafish VDR (Zebrafish VDR) | effect on testosterone 6β-hydroxylation [6] | activation of recombinant zebrafish PXR (zebrafish PXR [7]) | Effect on Xenopus laevis VDR (Xenopus laevis VDR) | effect on EROD activity [8]
1 | C[C@H](CCC(O)C(CO)CO)[C@H]1CC[C@H]2[C@@H]3[C@H](O)C[C@@H]4C[C@H](O)CC[C@]4(C)[C@H]3C[C@H](O)[C@]12C (stereo partly drawn) [5β-scymnol, 5β-cholestan-3α,7α,12α,24,26,27-hexol] | No effect | 1.08 ± 0.17 arbitrary units normalized to β-actin | No effect | 0.92 ± 0.38 arbitrary units normalized to β-actin | 1.17 ± 0.50 arbitrary units normalized to β-actin | No effect | 1.17 ± 0.58 arbitrary units normalized to β-actin | both inactive at recombinant zebrafish PXR | 62.2 ± 21.8 | – | – | – | – | – | – | – | – | –
2 | CCC1(c2ccccc2)C(=O)NC(=O)NC1=O [Phenobarbital] | – | – | – | – | – | – | – | – | – | No effect | 928 ± 109 | greater than 50 nmol/min/mg protein | did not alter EROD activity | No effect | None of these compounds produced significant increases in testosterone 6β-hydroxylation | all activate recombinant zebrafish PXR | No effect | found not to affect EROD activity
